For 14 molecules, GI50 and TGI results are on record in PubChem BioAssay (NCI).

Some test systems named below: HCC-2998 colon; KM12 colon; OVCAR-3 ovarian; OVCAR-5 ovarian; RPMI-8226 leukemia; RXF 393 renal; SF-268 CNS; T-47D breast; UACC-62 melanoma; EKVX NSCLC.
Assay in all cases: DTP human tumour cell line panel, 48 h

What is called GI50 is the concentration that inhibits growth by half. The term TGI denotes the concentration giving total growth inhibition. A lower TGI goes with greater sensitivity of the cells.

Molecules are shown by their SMILES. Several values for one entry are separate records, joined by “and”; a condition that tells them apart may be missing. Equal entries are not always repeated.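 Grown in 96-well plates, cells were treated for 48 hours with each compound at five concentrations. Insufficient inhibition: endpoint recorded as highest concentration tested. The concentration for 50% growth inhibition is given as GI50. TGI denotes the concentration required for complete inhibition of growth.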

Regarding `COc1ccc(/C=C/C(C)=N/OCC(=O)Nc2ccc(Cl)cc2)cc1`, the GI50 in the assay on HCC-2998 colon was 3.75 µM; in the assay on KM12 colon it was 2.24 µM; in the assay on OVCAR-3 ovarian it was 3.03 µM; in the assay with OVCAR-5 ovarian it was 5.45 µM; in the assay on RPMI-8226 leukemia it was 1.89 µM; in the assay on RXF 393 renal, 4.09 µM. In addition, the GI50 was 4.2 µM in the assay with SF-268 CNS, 1.63 µM with T-47D breast and 1.21 µM in the assay on UACC-62 melanoma. Further, the TGI in the assay on HCC-2998 colon was 15.8 µM; with KM12 colon, 16.5 µM; in the assay with OVCAR-3 ovarian, 15 µM; in the assay on OVCAR-5 ovarian it was over 77.3 µM; with RPMI-8226 leukemia it was 6.21 µM; in the assay with RXF 393 renal, 21.4 µM. The TGI worked out at 49.4 µM in the assay on SF-268 CNS, 24.8 µM in the assay with T-47D breast and 6.46 µM with UACC-62 melanoma.
As to `Cc1ccc(C2=C(Cl)C(=O)C(c3ccc(C)cc3)=C(Cl)C2=O)cc1`, the TGI in the assay on EKVX NSCLC, in the assay with KM12 colon, in the assay on OVCAR-3 ovarian, in the assay on OVCAR-5 ovarian, in the assay on RPMI-8226 leukemia and in the assay with RXF 393 renal was over 100 µM in each case. Also, the TGI in the assay with SF-268 CNS, in the assay with T-47D breast and in the assay with UACC-62 melanoma was over 100 µM throughout.
Regarding `CCCCC[C@@H](C/C=C/CCC(=O)NC/C(=C/Cl)[C@H]1C(=O)C(C)(C)C(=O)[C@@H](C)[C@@]1(C)O)OC`, the GI50 was 13.5 µM in the assay on EKVX NSCLC; 17.5 µM in the assay on KM12 colon; 16.3 µM in the assay on OVCAR-3 ovarian; 18.9 µM with OVCAR-5 ovarian; 6.23 µM in the assay with RPMI-8226 leukemia; 17.4 µM in the assay on RXF 393 renal. For the same molecule, the GI50 in the assay on SF-268 CNS was 17.6 µM; with T-47D breast it was 15.4 µM; in the assay with UACC-62 melanoma, 15.6 µM. Also, the TGI with EKVX NSCLC is 30.5 µM; in the assay with KM12 colon it was 32.7 µM; in the assay on OVCAR-3 ovarian, 30.5 µM; in the assay on OVCAR-5 ovarian, 34.7 µM; in the assay on RPMI-8226 leukemia, 23 µM; with RXF 393 renal it was 34.2 µM. In addition, the figures for the TGI in the assay on SF-268 CNS, in the assay with T-47D breast and with UACC-62 melanoma were 34.6 µM, 34.6 µM and 29.1 µM, respectively.
On to `N/C(=N\C(N)=N\c1nc2ccccc2s1)c1cnccn1`, for which the GI50 in the assay on EKVX NSCLC was 4.08 µM; in the assay with KM12 colon, 3.37 µM; in the assay on OVCAR-3 ovarian, 2.79 µM; in the assay on OVCAR-5 ovarian, 3.68 µM; with RPMI-8226 leukemia, 3.2 µM; in the assay on RXF 393 renal, 1.93 µM. Further, the GI50 in the assay on SF-268 CNS was 4.74 µM; in the assay with T-47D breast it was 2.24 µM; with UACC-62 melanoma, 1.74 µM. The concentration for total growth inhibition (TGI) with EKVX NSCLC was over 100 µM; in the assay on KM12 colon, over 100 µM; in the assay with OVCAR-3 ovarian, 7.86 µM; in the assay with OVCAR-5 ovarian, over 100 µM; in the assay with RPMI-8226 leukemia, over 100 µM; in the assay on RXF 393 renal, 3.96 µM. The TGI with SF-268 CNS is over 100 µM; with T-47D breast it was 6.22 µM; with UACC-62 melanoma it was 3.52 µM.
Regarding `Cc1ccnc(Nc2ccc([N+](=O)[O-])c(NCCN3CCOCC3)n2)c1`, the GI50 is 0.0292 µM in the assay on EKVX NSCLC; 0.0187 µM and 0.0171 µM with HCC-2998 colon; 0.00464 µM in the assay with KM12 colon; 0.00266 µM in the assay with OVCAR-3 ovarian; 0.074 µM in the assay on OVCAR-5 ovarian; 0.0212 µM and 0.0269 µM in the assay on RPMI-8226 leukemia. Besides, the GI50 in the assay on SF-268 CNS was 0.00926 µM and 0.059 µM; in the assay on T-47D breast it was 26.1 µM; in the assay on UACC-62 melanoma, 0.00382 µM. Besides, the concentration for total growth inhibition (TGI) with HCC-2998 colon amounted to 14.7 µM; with OVCAR-3 ovarian it was 0.0078 µM; in the assay on RPMI-8226 leukemia, 24.5 µM; in the assay with SF-268 CNS, 42.4 µM; in the assay with T-47D breast, 74.9 µM; in the assay with UACC-62 melanoma it was 18.3 µM.
As for `C[C@]12CCC3=NCCN3C1=CC[C@@H]1[C@@H]2CC[C@@]2(C)[C@H]1CC[C@]2(C)O`, the TGI with EKVX NSCLC was over 100 µM; in the assay on KM12 colon, over 100 µM; with OVCAR-3 ovarian it was over 100 µM; with OVCAR-5 ovarian, over 100 µM; in the assay on RPMI-8226 leukemia, 70.8 µM; in the assay on RXF 393 renal it was 66.4 µM. For the same molecule, the results for the TGI with SF-268 CNS, in the assay on T-47D breast and in the assay with UACC-62 melanoma were over 100 µM, over 100 µM and 76.4 µM, respectively.
`O=C(C(=O)c1cc(Br)ccc1O)c1cc(Br)ccc1O`: the GI50 in the assay on EKVX NSCLC was 2.03 µM; with HCC-2998 colon, 4.75 µM; in the assay on KM12 colon, 3.21 µM; in the assay with OVCAR-3 ovarian, 2.84 µM; in the assay on OVCAR-5 ovarian it was 22.2 µM; in the assay on RPMI-8226 leukemia, 2.71 µM. Also, the GI50 in the assay with SF-268 CNS is 3.41 µM; in the assay with T-47D breast it was 3.87 µM; in the assay with UACC-62 melanoma it was 3.94 µM. The TGI with EKVX NSCLC is 7.52 µM; in the assay on HCC-2998 colon, 18.6 µM; in the assay with KM12 colon it was 11.4 µM; in the assay with OVCAR-3 ovarian, 9.32 µM; in the assay on OVCAR-5 ovarian, 74.8 µM; with RPMI-8226 leukemia, 88.2 µM. Moreover, the TGI was 21.1 µM in the assay with SF-268 CNS, over 100 µM with T-47D breast and 17 µM with UACC-62 melanoma.
With `CCOc1ccc(Nc2nc(-c3c(C)nc4ncccn34)cs2)cc1`, the concentration for 50% growth inhibition (GI50) in the assay on HCC-2998 colon was 0.0522 µM; in the assay with KM12 colon it was 0.034 µM; in the assay with OVCAR-3 ovarian, under 0.01 µM; with OVCAR-5 ovarian it was 0.0362 µM; with RPMI-8226 leukemia, 0.0366 µM; with SF-268 CNS, 1.53 µM. Moreover, the GI50 with T-47D breast is 1.04 µM; in the assay on UACC-62 melanoma it was under 0.01 µM. For the same molecule, the concentration for total growth inhibition (TGI) in the assay with HCC-2998 colon is 15.7 µM; in the assay on KM12 colon, 13.8 µM; in the assay with OVCAR-3 ovarian it was 14.6 µM; in the assay with OVCAR-5 ovarian it was 19 µM; in the assay on RPMI-8226 leukemia, 14.5 µM; in the assay with SF-268 CNS, 19.5 µM. Also, the TGI with T-47D breast amounted to 17.1 µM; with UACC-62 melanoma it was 12.8 µM.
As to `Cc1ccc(S(=O)(=O)N2CCC(C(=O)O)(c3ccccc3)CC2)cc1`, the TGI in the assay on EKVX NSCLC, in the assay with KM12 colon, in the assay with OVCAR-3 ovarian, in the assay on OVCAR-5 ovarian, in the assay on RPMI-8226 leukemia and in the assay with RXF 393 renal was over 100 µM throughout. Further, the TGI with SF-268 CNS, in the assay with T-47D breast and in the assay on UACC-62 melanoma was over 100 µM each time.
Regarding `O=C(Nc1ccc(C(F)(F)F)cc1[N+](=O)[O-])c1cccnc1`, the concentration for total growth inhibition (TGI) is over 100 µM in the assay with EKVX NSCLC; over 100 µM with HCC-2998 colon; over 100 µM in the assay with KM12 colon; 7.29 µM in the assay on OVCAR-3 ovarian; over 100 µM with OVCAR-5 ovarian; over 100 µM in the assay with RPMI-8226 leukemia. In addition, the figures for the TGI in the assay with SF-268 CNS, in the assay on T-47D breast and with UACC-62 melanoma were 30.6 µM, over 100 µM and 90.8 µM, respectively.
Consider `COC(=O)[C@H](Cc1cn(C)cn1)NC(=O)[C@@H](NC(=O)Nc1cc(C(F)(F)F)cc(C(F)(F)F)c1)C(C)C`, for which the GI50 is 1.81 µM in the assay with HCC-2998 colon; 1.98 µM in the assay on KM12 colon; 1.86 µM in the assay with OVCAR-3 ovarian; over 10 µM with OVCAR-5 ovarian; 3.03 µM in the assay with RPMI-8226 leukemia; 1.96 µM with RXF 393 renal. Also, the values for the GI50 in the assay with SF-268 CNS, in the assay on T-47D breast and with UACC-62 melanoma were 2.02 µM, 3.14 µM and 8.58 µM, respectively. The total growth inhibition concentration (TGI) with HCC-2998 colon is 3.46 µM; in the assay with KM12 colon, 4.22 µM; in the assay with OVCAR-3 ovarian it was 3.48 µM; in the assay on OVCAR-5 ovarian, over 10 µM; in the assay on RPMI-8226 leukemia, over 10 µM; with RXF 393 renal, 4.08 µM. In addition, the TGI in the assay on SF-268 CNS is 4.87 µM; in the assay on T-47D breast it was over 10 µM; with UACC-62 melanoma, over 10 µM.
Take `O=c1[nH]c2ccc([N+](=O)[O-])c(Cl)c2c2ccccc12`: the concentration for total growth inhibition (TGI) was 19.9 µM with EKVX NSCLC; 23.6 µM with HCC-2998 colon; 4.52 µM with KM12 colon; 17.6 µM in the assay on OVCAR-3 ovarian; 35.4 µM in the assay with OVCAR-5 ovarian; 33.7 µM in the assay with RPMI-8226 leukemia. For the same molecule, the results for the concentration for total growth inhibition (TGI) in the assay with SF-268 CNS, in the assay on T-47D breast and in the assay with UACC-62 melanoma were 10.6 µM, 73.7 µM and 15.5 µM, respectively.
As for `COc1cc(/C=C\c2cc(OC)c(OC)c(OC)c2)cc(NS(=O)(=O)c2ccc(Cl)cc2)c1OC`, the GI50 in the assay on HCC-2998 colon is 1.98 µM; with KM12 colon, 0.572 µM; in the assay with OVCAR-3 ovarian, 0.364 µM; with OVCAR-5 ovarian it was 0.726 µM; with RPMI-8226 leukemia it was 0.387 µM; in the assay on RXF 393 renal it was 0.272 µM. For the same molecule, the GI50 with SF-268 CNS was 1.1 µM; in the assay with T-47D breast, 0.381 µM; with UACC-62 melanoma it was 0.435 µM. For the same molecule, the TGI is over 100 µM in the assay on HCC-2998 colon; over 100 µM in the assay with KM12 colon; over 100 µM in the assay with OVCAR-3 ovarian; over 100 µM in the assay on OVCAR-5 ovarian; 33.2 µM in the assay on RPMI-8226 leukemia; 1.24 µM in the assay on RXF 393 renal. The values for the TGI in the assay with SF-268 CNS, in the assay on T-47D breast and in the assay on UACC-62 melanoma were over 100 µM, over 100 µM and 36.7 µM, respectively.
In the case of `OCCCCC#Cc1ccccc1C#Cc1ccc(C(F)(F)F)cc1`, the GI50 with EKVX NSCLC was 18.4 µM; in the assay with HCC-2998 colon, 17.1 µM; in the assay on KM12 colon it was 13.9 µM; with OVCAR-3 ovarian, 17.8 µM; with OVCAR-5 ovarian, 16.9 µM; in the assay with RPMI-8226 leukemia, 19.9 µM. Moreover, the GI50 in the assay with SF-268 CNS was 22 µM; with T-47D breast, 15.9 µM; in the assay on UACC-62 melanoma, 16 µM. For the same molecule, the TGI was 35.9 µM with EKVX NSCLC; 32 µM with HCC-2998 colon; 29.8 µM in the assay with KM12 colon; 32.6 µM in the assay on OVCAR-3 ovarian; 31.8 µM with OVCAR-5 ovarian; 48.8 µM with RPMI-8226 leukemia. Besides, the TGI in the assay with SF-268 CNS was determined as 48 µM; with T-47D breast, 33.9 µM; in the assay on UACC-62 melanoma, 29.8 µM.
